# Reference: patent publication US20100273816A1, “Quinazoline Compounds” (priority 2007, published 2010)
# How the values were obtained:
# [1] = target: T1, human LXRβ (Homo sapiens, UniProt P55055); assay: Ligand-binding test procedure for human LXRβ (3H T0901317 tracer, flash plates); conditions: biotinylated hLXRβ from E. coli extract, +4° C. over night, read-out: hLXRB binding assay Mean IC50
# T1 construct: biotin (biotinylated); made in house; host or cells: E. coli (crude extract)
# T1 sequence (P55055 1-460): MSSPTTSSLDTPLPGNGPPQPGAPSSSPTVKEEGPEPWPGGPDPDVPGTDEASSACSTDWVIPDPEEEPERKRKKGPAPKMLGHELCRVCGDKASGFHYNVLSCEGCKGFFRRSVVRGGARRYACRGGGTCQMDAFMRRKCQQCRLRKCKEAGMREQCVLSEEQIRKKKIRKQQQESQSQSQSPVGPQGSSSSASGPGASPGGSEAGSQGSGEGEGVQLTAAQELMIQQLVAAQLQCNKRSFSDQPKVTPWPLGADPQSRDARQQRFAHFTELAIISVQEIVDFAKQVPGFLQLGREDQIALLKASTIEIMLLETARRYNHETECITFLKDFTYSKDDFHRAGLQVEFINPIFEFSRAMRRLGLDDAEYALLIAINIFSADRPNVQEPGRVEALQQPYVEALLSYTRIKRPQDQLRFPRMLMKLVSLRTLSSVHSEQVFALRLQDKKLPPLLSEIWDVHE
# Experimental: I. Ligand-Binding Test Procedure for Human LXRβ.
# (§1) Buffer: 100 mM KCl, 100 mM TRIS (pH 7.4 at +4° C.), 8.6% glycerol, 0.1 mM PMSF*, 2 mM MTG*, 0.2% CHAPS (* not used in wash buffer)
# Receptor source: E. coli extract from cells expressing biotinylated hLXRβ. Extract was made in a similar buffer as above, but with 50 mM TRIS.
# (§2) Washed streptavidin and coated flash plates with wash buffer.
# (§3) Diluted receptor extract to give Bmax ˜4000 cpm and add to the wells.
# (§4) Wrapped the plates in aluminum foil and stored them at +4° C. over night.
# (§5) Made a dilution series in DMSO of the test ligands.
# (§6) Made a 5 nM solution of the radioactive tracer in buffer.
# Mixed 250 μl diluted tracer with 50 of the test ligand from each concentration of the dilution series.
# (§7) Washed the receptor-coated flash plates.
# (§8) Added 200 μl per well of the ligand/radiolabel mixture to the receptor-coated flash plates.
# (§9) Wrapped the plates in aluminum foil and incubate at +4° C. over night.
# (§10) Aspirated wells, and wash the flashed plates. Sealed the plate.
# (§11) Measured the remaining radioactivity in the plate.
# [2] = target: T2, human LXRα (Homo sapiens, UniProt Q13133); assay: Ligand-binding test procedure for human LXRα (3H T0901317 tracer, flash plates); conditions: biotinylated hLXRα from E. coli extract, +4° C. over night, read-out: hLXRa binding assay Mean IC50
# T2 construct: biotin (biotinylated); made in house; host or cells: E. coli (crude extract)
# T2 sequence (Q13133 1-447): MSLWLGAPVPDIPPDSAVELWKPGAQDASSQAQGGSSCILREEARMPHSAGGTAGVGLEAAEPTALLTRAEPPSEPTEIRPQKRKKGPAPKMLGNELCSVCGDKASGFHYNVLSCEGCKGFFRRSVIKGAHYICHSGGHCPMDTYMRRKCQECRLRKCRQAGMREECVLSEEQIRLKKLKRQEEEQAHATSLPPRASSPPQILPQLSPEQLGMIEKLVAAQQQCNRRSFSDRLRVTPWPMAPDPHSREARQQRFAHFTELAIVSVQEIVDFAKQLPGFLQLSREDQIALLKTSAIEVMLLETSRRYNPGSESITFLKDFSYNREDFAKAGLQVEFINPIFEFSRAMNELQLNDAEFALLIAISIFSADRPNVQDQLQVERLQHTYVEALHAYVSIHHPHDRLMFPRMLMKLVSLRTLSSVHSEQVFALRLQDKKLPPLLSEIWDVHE
# Experimental: II. Ligand-Binding Test Procedure for Human LXRα.
# as §1
# Receptor source: E. coli extract from cells expressing biotinylated hLXRα. Extract was made in a similar buffer as above, but with 50 mM TRIS.
# as §2, §3, §4, §5, §6
# Mixed 250 μl diluted tracer with 5 μl of the test ligand from each concentration of the dilution series.
# as §7, §8, §9, §10, §11
SMILES,IC50 [1] [µM],IC50 [2] [µM]
"CS(=O)(=O)c1cccc(Oc2ccc(Cl)c(-c3ncnc4c(C(F)(F)F)cccc34)c2)c1 [Example 49, 4-{2-chloro-5-[3-(methylsulfonyl)phenoxy]phenyl}-8-(trifluoromethyl)quinazoline]",0.005,0.177
"CCS(=O)(=O)c1cccc(Oc2ccc(Cl)c(-c3ncnc4c(C(F)(F)F)cccc34)c2)c1 [Example 50, 4-{2-chloro-5-[3-(ethylsulfonyl)phenoxy]phenyl}-8-(trifluoromethyl)quinazoline]",0.005,0.236
"CC(C)S(=O)(=O)c1cccc(Oc2ccc(Cl)c(-c3ncnc4c(C(F)(F)F)cccc34)c2)c1 [Example 51, 4-{2-chloro-5-[3-(isopropylsulfonyl)phenoxy]phenyl}-8-(trifluoromethyl)quinazoline]",0.002,0.119
"CC(C)S(=O)(=O)c1cccc(Oc2ccc(F)c(-c3ncnc4c(C(F)(F)F)cccc34)c2)c1 [Example 54, 4-{2-fluoro-5-[3-(isopropylsulfonyl)phenoxy]phenyl}-8-(trifluoromethyl)quinazoline]",0.005,0.176
"CS(=O)(=O)c1cc(F)cc(Oc2ccc(F)c(-c3ncnc4c(C(F)(F)F)cccc34)c2)c1 [Example 55, 4-{2-fluoro-5-[3-fluoro-5-(methylsulfonyl)phenoxy]phenyl}-8-(trifluoromethyl)quinazoline]",0.035,0.782
"CS(=O)(=O)c1cccc(COc2ccc(F)c(-c3ncnc4c(C(F)(F)F)cccc34)c2)c1 [Example 56, 4-(2-fluoro-5-{[3-(methylsulfonyl)benzyl]oxy}phenyl)-8-(trifluoromethyl)quinazoline]",0.044,0.787
"CS(=O)(=O)c1cc(Cl)cc(Oc2ccc(F)c(-c3ncnc4c(C(F)(F)F)cccc34)c2)c1 [Example 57, 4-{5-[3-chloro-5-(methylsulfonyl)phenoxy]-2-fluorophenyl}-8-(trifluoromethyl)quinazoline]",0.214,2.34
"Cc1nc(-c2cc(Oc3cccc(S(=O)(=O)C(C)C)c3)ccc2Cl)c2cccc(C(F)(F)F)c2n1 [Example 60, 4-{2-chloro-5-[3-(isopropylsulfonyl)phenoxy]phenyl}-2-methyl-8-(trifluoromethyl)quinazoline]",0.016,0.524
"Cc1nc(-c2cc(Oc3cc(F)cc(S(C)(=O)=O)c3)ccc2Cl)c2cccc(C(F)(F)F)c2n1 [Example 61, 4-{2-chloro-5-[3-fluoro-5-(methylsulfonyl)phenoxy]phenyl}-2-methyl-8-(trifluoromethyl)quinazoline]",0.049,1.79
"CCS(=O)(=O)c1cc(F)cc(Oc2ccc(Cl)c(-c3nc(C)nc4c(C(F)(F)F)cccc34)c2)c1 [Example 62, 4-{2-chloro-5-[3-(ethylsulfonyl)-5-fluorophenoxy]phenyl}-2-methyl-8-(trifluoromethyl)quinazoline]",0.063,1.43
"Cc1nc(-c2cc(OCc3cccc(S(C)(=O)=O)c3)ccc2Cl)c2cccc(C(F)(F)F)c2n1 [Example 63, 4-(2-chloro-5-{[3-(methylsulfonyl)benzyl]oxy}phenyl)-2-methyl-8-(trifluoromethyl)quinazoline]",0.181,3.38
"CCS(=O)(=O)c1cc(F)cc(Oc2ccc(F)c(-c3ncnc4c(Cl)cccc34)c2)c1 [Example 65, 8-chloro-4-{5-[3-(ethylsulfonyl)-5-fluorophenoxy]-2-fluorophenyl}quinazoline]",0.152,2.95
"CC(C)S(=O)(=O)c1cccc(Oc2ccc(F)c(-c3ncnc4c(Cl)cccc34)c2)c1 [Example 68, 8-chloro-4-(2-fluoro-5-{[3-(1-methylethyl)sulfonyl]phenoxy}phenyl)quinazoline]",0.015,0.597
"O=S(=O)(CCCO)c1cccc(Oc2ccc(F)c(-c3ncnc4c(Cl)cccc34)c2)c1 [Example 73, 3-({3-[3-(8-chloroquinazolin-4-yl)-4-fluorophenoxy]phenyl}sulfonyl)propan-1-ol]",0.182,2.52
"CS(=O)(=O)c1cccc(-c2cccc(-c3nc(C4CC4)nc4c(C(F)(F)F)cccc34)c2)c1 [Example 76, 2-cyclopropyl-4-[3′-(methylsulfonyl)biphenyl-3-yl]-8-(trifluoromethyl)quinazoline]",0.153,0.714
"COc1cccc2c(-c3cc(Oc4cccc(S(C)(=O)=O)c4)ccc3Cl)ncnc12 [Example 77, 4-{2-chloro-5-[3-(methylsulfonyl)phenoxy]phenyl}-8-methoxyquinazoline]",0.344,10.4

# Results, then the compound that gave them:
IC50 [1] [µM],IC50 [2] [µM],SMILES
0.014,0.284,"CS(=O)(=O)c1cccc(Oc2ccc(F)c(-c3ncnc4c(C(F)(F)F)cccc34)c2)c1 [Example 52, 4-{2-fluoro-5-[3-(methylsulfonyl)phenoxy]phenyl}-8-(trifluoromethyl)quinazoline]"
0.008,0.233,"CCS(=O)(=O)c1cccc(Oc2ccc(F)c(-c3ncnc4c(C(F)(F)F)cccc34)c2)c1 [Example 53, 4-{5-[3-(ethylsulfonyl)phenoxy]-2-fluorophenyl}-8-(trifluoromethyl)quinazoline]"
0.02,1.36,"Cc1nc(-c2cc(Oc3cccc(S(C)(=O)=O)c3)ccc2Cl)c2cccc(C(F)(F)F)c2n1 [Example 58, 4-{2-chloro-5-[3-(methylsulfonyl)phenoxy]phenyl}-2-methyl-8-(trifluoromethyl)quinazoline]"
0.019,2.37,"CCS(=O)(=O)c1cccc(Oc2ccc(Cl)c(-c3nc(C)nc4c(C(F)(F)F)cccc34)c2)c1 [Example 59, 4-{2-chloro-5-[3-(ethylsulfonyl)phenoxy]phenyl}-2-methyl-8-(trifluoromethyl)quinazoline]"
0.081,1.83,"CS(=O)(=O)c1cc(F)cc(Oc2ccc(F)c(-c3ncnc4c(Cl)cccc34)c2)c1 [Example 64, 8-chloro-4-{2-fluoro-5-[3-fluoro-5-(methylsulfonyl)phenoxy]phenyl}quinazoline]"
0.099,1.54,"CS(=O)(=O)c1cccc(COc2ccc(F)c(-c3ncnc4c(Cl)cccc34)c2)c1 [Example 66, 8-chloro-4-(2-fluoro-5-{[3-(methylsulfonyl)benzyl)oxy]phenyl}quinazoline]"
0.036,0.712,"CCS(=O)(=O)c1cccc(Oc2ccc(F)c(-c3ncnc4c(Cl)cccc34)c2)c1 [Example 67, 8-chloro-4-{2-fluoro-5-[3-(ethylsulfonyl)phenoxy]phenyl}quinazoline]"
0.095,0.265,"O=S(=O)(CCCOC1CCCCO1)c1cccc(Oc2ccc(F)c(-c3ncnc4c(Cl)cccc34)c2)c1 (stereo not drawn) [Example 69, 8-chloro-4-[2-fluoro-5-(3-{[3-(tetrahydro-2H-pyran-2-yloxy)propyl]sulfonyl}phenoxy)phenyl]quinazoline]"
0.02,0.718,"CS(=O)(=O)c1cccc(Oc2ccc(F)c(-c3ncnc4c(Cl)cccc34)c2)c1 [Example 75, 8-chloro-4-{2-fluoro-5-[3-(methylsulfonyl)phenoxy]phenyl}quinazoline]"
0.026,0.325,"CS(=O)(=O)c1cccc(Oc2ccc(Cl)c(-c3ncnc4c(Cl)cccc34)c2)c1 [Example 78, 8-chloro-4-{2-chloro-5-[3-(methylsulfonyl)phenoxy]phenyl}quinazoline]"
0.047,0.714,"O=S(=O)(CCCO)c1cccc(Oc2ccc(F)c(-c3ncnc4c(C(F)(F)F)cccc34)c2)c1 [Example 93, 3-[(3-{4-fluoro-3-[8-(trifluoromethyl)quinazolin-4-yl]phenoxy}phenyl)sulfonyl]propan-1-ol]"
